# Measurements reported in PubChem BioAssay (NCI).
#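 In this assay, cells in 96-well plates receive the compound at five concentrations for 48 hours. Endpoints are linearly interpolated between the surrounding concentrations. Abbreviation: GI50, concentration required for 50% inhibition of growth. The concentration for full growth arrest is given as TGI.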
# Experiments:
# Assay in all cases: DTP human tumour cell line panel, 48 h
# 786-0 renal = system: 786-0 renal
# A498 renal = system: A498 renal
# A549 NSCLC = system: A549 NSCLC
# ACHN renal = system: ACHN renal
# BT-549 breast = system: BT-549 breast
# CAKI-1 renal = system: CAKI-1 renal
# CCRF-CEM leukemia = system: CCRF-CEM leukemia
# COLO 205 colon = system: COLO 205 colon
# DU-145 prostate = system: DU-145 prostate
# EKVX NSCLC = system: EKVX NSCLC
# HCC-2998 colon = system: HCC-2998 colon
# HCT-116 colon = system: HCT-116 colon
# HCT-15 colon = system: HCT-15 colon
# HL-60(TB) leukemia = system: HL-60(TB) leukemia
# HOP-62 NSCLC = system: HOP-62 NSCLC
# HOP-92 NSCLC = system: HOP-92 NSCLC
# HS 578T breast = system: HS 578T breast
# HT29 colon = system: HT29 colon
# K-562 leukemia = system: K-562 leukemia
# KM12 colon = system: KM12 colon
# LOX IMVI melanoma = system: LOX IMVI melanoma
# M14 melanoma = system: M14 melanoma
# MALME-3M melanoma = system: MALME-3M melanoma
# MCF7 breast = system: MCF7 breast
# MDA-MB-231 breast = system: MDA-MB-231 breast
# MDA-MB-435 = system: MDA-MB-435
# MOLT-4 leukemia = system: MOLT-4 leukemia
# NCI-H226 lung = system: NCI-H226 lung
# NCI-H23 lung = system: NCI-H23 lung
# NCI-H460 lung = system: NCI-H460 lung
# NCI-H522 lung = system: NCI-H522 lung
# NCI/ADR-RES ovarian = system: NCI/ADR-RES ovarian
# OVCAR-3 ovarian = system: OVCAR-3 ovarian
# OVCAR-4 ovarian = system: OVCAR-4 ovarian
# OVCAR-5 ovarian = system: OVCAR-5 ovarian
# OVCAR-8 ovarian = system: OVCAR-8 ovarian
# PC-3 prostate = system: PC-3 prostate
# RPMI-8226 leukemia = system: RPMI-8226 leukemia
# RXF 393 renal = system: RXF 393 renal
# SF-268 CNS = system: SF-268 CNS
# SF-295 CNS = system: SF-295 CNS
# SF-539 CNS = system: SF-539 CNS
# SK-MEL-2 melanoma = system: SK-MEL-2 melanoma
# SK-MEL-28 melanoma = system: SK-MEL-28 melanoma
# SK-MEL-5 melanoma = system: SK-MEL-5 melanoma
# SK-OV-3 ovarian = system: SK-OV-3 ovarian
# SN12C renal = system: SN12C renal
# SNB-19 CNS = system: SNB-19 CNS
# SNB-75 CNS = system: SNB-75 CNS
# SR leukemia = system: SR leukemia
# SW-620 colon = system: SW-620 colon
# T-47D breast = system: T-47D breast
# TK-10 renal = system: TK-10 renal
# U251 CNS = system: U251 CNS
# UACC-257 melanoma = system: UACC-257 melanoma
# UACC-62 melanoma = system: UACC-62 melanoma
# UO-31 renal = system: UO-31 renal
structure (smiles),measurement,setting,value
CC(C)N(Cc1ccccc1)c1c(S)ssc1=S,GI50,786-0 renal,3.65 µM
same,TGI,786-0 renal,> 100 µM
same,GI50,A498 renal,0.723 µM
same,TGI,A498 renal,4.12 µM
same,GI50,A549 NSCLC,2.41 µM
same,TGI,A549 NSCLC,12.9 µM
same,GI50,ACHN renal,1.97 µM
same,TGI,ACHN renal,12.4 µM
same,GI50,BT-549 breast,3.01 µM
same,TGI,BT-549 breast,9.21 µM
same,GI50,CAKI-1 renal,0.661 µM
same,TGI,CAKI-1 renal,> 100 µM
same,GI50,CCRF-CEM leukemia,0.849 µM
same,TGI,CCRF-CEM leukemia,6.66 µM
same,GI50,COLO 205 colon,1.56 µM
same,TGI,COLO 205 colon,4.26 µM
same,GI50,DU-145 prostate,3.15 µM
same,TGI,DU-145 prostate,28.7 µM
same,GI50,EKVX NSCLC,2.2 µM
same,TGI,EKVX NSCLC,8.49 µM
same,GI50,HCC-2998 colon,4.36 µM
same,TGI,HCC-2998 colon,74 µM
same,GI50,HCT-116 colon,2.72 µM
same,TGI,HCT-116 colon,26.8 µM
same,GI50,HCT-15 colon,3.16 µM
same,TGI,HCT-15 colon,13.5 µM
same,GI50,HL-60(TB) leukemia,1.16 µM
same,TGI,HL-60(TB) leukemia,3.12 µM
same,GI50,HOP-62 NSCLC,4.24 µM
same,TGI,HOP-62 NSCLC,> 100 µM
same,GI50,HOP-92 NSCLC,0.342 µM
same,TGI,HOP-92 NSCLC,3.79 µM
same,GI50,HS 578T breast,0.861 µM
same,TGI,HS 578T breast,7.08 µM
same,GI50,HT29 colon,2.29 µM
same,TGI,HT29 colon,9.59 µM
same,GI50,K-562 leukemia,0.941 µM
same,TGI,K-562 leukemia,3.81 µM
same,GI50,KM12 colon,2.47 µM
same,TGI,KM12 colon,21.7 µM
same,GI50,LOX IMVI melanoma,3.08 µM
same,TGI,LOX IMVI melanoma,15.5 µM
same,GI50,M14 melanoma,4.67 µM
same,TGI,M14 melanoma,> 100 µM
same,GI50,MALME-3M melanoma,1.65 µM
same,TGI,MALME-3M melanoma,5.99 µM
same,GI50,MCF7 breast,1.57 µM
same,TGI,MCF7 breast,5.02 µM
same,GI50,MDA-MB-231 breast,1.77 µM
same,TGI,MDA-MB-231 breast,5.49 µM
same,GI50,MDA-MB-435,0.694 µM
same,TGI,MDA-MB-435,18.5 µM
same,GI50,MOLT-4 leukemia,1.69 µM
same,TGI,MOLT-4 leukemia,7.39 µM
same,GI50,NCI-H226 lung,3.14 µM
same,TGI,NCI-H226 lung,36.1 µM
same,GI50,NCI-H23 lung,3.83 µM
same,TGI,NCI-H23 lung,96.3 µM
same,GI50,NCI-H460 lung,2.33 µM
same,TGI,NCI-H460 lung,10.7 µM
same,GI50,NCI-H522 lung,2.06 µM
same,TGI,NCI-H522 lung,> 100 µM
same,GI50,NCI/ADR-RES ovarian,3.33 µM
same,TGI,NCI/ADR-RES ovarian,> 100 µM
same,GI50,OVCAR-3 ovarian,1.21 µM
same,TGI,OVCAR-3 ovarian,> 100 µM
same,GI50,OVCAR-4 ovarian,0.641 µM
same,TGI,OVCAR-4 ovarian,> 100 µM
same,GI50,OVCAR-5 ovarian,3.56 µM
same,TGI,OVCAR-5 ovarian,> 100 µM
same,GI50,OVCAR-8 ovarian,2.44 µM
same,TGI,OVCAR-8 ovarian,22.2 µM
same,GI50,PC-3 prostate,2.23 µM
same,TGI,PC-3 prostate,9.44 µM
same,GI50,RPMI-8226 leukemia,0.772 µM
same,TGI,RPMI-8226 leukemia,6.27 µM
same,GI50,RXF 393 renal,2.17 µM
same,TGI,RXF 393 renal,10.1 µM
same,GI50,SF-268 CNS,2.86 µM
same,TGI,SF-268 CNS,31.7 µM
same,GI50,SF-295 CNS,1.19 µM
same,TGI,SF-295 CNS,11.7 µM
same,GI50,SF-539 CNS,3.06 µM
same,TGI,SF-539 CNS,10.4 µM
same,GI50,SK-MEL-2 melanoma,3.53 µM
same,TGI,SK-MEL-2 melanoma,31.1 µM
same,GI50,SK-MEL-28 melanoma,2.09 µM
same,TGI,SK-MEL-28 melanoma,17.8 µM
same,GI50,SK-MEL-5 melanoma,0.605 µM
same,TGI,SK-MEL-5 melanoma,2.82 µM
same,GI50,SK-OV-3 ovarian,2.47 µM
same,TGI,SK-OV-3 ovarian,9.59 µM
same,GI50,SN12C renal,2.42 µM
same,TGI,SN12C renal,19.7 µM
same,GI50,SNB-19 CNS,3.76 µM
same,TGI,SNB-19 CNS,> 100 µM
same,GI50,SNB-75 CNS,2.98 µM
same,TGI,SNB-75 CNS,26.9 µM
same,GI50,SR leukemia,2.16 µM
same,TGI,SR leukemia,7.89 µM
same,GI50,SW-620 colon,2.69 µM
same,TGI,SW-620 colon,12.7 µM
same,GI50,T-47D breast,1.17 µM
same,TGI,T-47D breast,18.6 µM
same,GI50,TK-10 renal,5.08 µM
same,TGI,TK-10 renal,> 100 µM
same,GI50,U251 CNS,2.58 µM
same,TGI,U251 CNS,15.9 µM
same,GI50,UACC-257 melanoma,1.54 µM
same,TGI,UACC-257 melanoma,6.2 µM
same,GI50,UACC-62 melanoma,0.452 µM
same,TGI,UACC-62 melanoma,15 µM
same,GI50,UO-31 renal,3.6 µM
same,TGI,UO-31 renal,70.6 µM
